Results as given in patent publication US8785488B2 (Exelixis Patent Company LLC, priority 2009, dated 2014).
Counter-ions that a name gives are not always drawn.

Biological target: T1, human TGR5 (h-TGR5) (Homo sapiens, UniProt Q8TDU6)
T1 construct: expressed in transfected cells
T1 sequence (Q8TDU6 1-330): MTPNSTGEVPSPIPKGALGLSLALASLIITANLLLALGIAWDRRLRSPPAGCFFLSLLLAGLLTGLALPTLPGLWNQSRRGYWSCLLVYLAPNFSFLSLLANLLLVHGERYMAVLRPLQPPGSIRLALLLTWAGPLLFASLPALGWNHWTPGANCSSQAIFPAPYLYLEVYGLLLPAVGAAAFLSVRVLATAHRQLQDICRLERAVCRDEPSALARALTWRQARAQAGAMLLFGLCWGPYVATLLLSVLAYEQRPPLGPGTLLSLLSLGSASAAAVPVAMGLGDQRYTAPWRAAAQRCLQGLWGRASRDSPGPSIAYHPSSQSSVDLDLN
Assay: TGR5/CRE-Luciferiase Assay (HEK 293 hTGR5/CRE-Luc cells)
Assay type: cell-based
Conditions: HEK 293 hTGR5/CRE-Luc cells, 6 hours incubation, luciferase activity; Table 2; read-out: h-TGR5CRE-Luc EC50 (CRE-Luc)
Outline: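 HEK293 cells stably carrying hTGR5 and a CRE-luciferase reporter were exposed to serially diluted compounds (diluted in DMEM with 5% DMSO) for 6 h. Cells were then lysed in luciferase buffer, luminescence was read, and EC50 values were derived from dose-response curves.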

Row | EC50 | SMILES
1 | 1000 to 10000 nM | Fc1ccc(-n2c(Cc3ccc(Cl)c(Cl)c3)nnc2SCc2cccc(Cl)c2F)cc1 [Example 2]
2 | 1000 to 10000 nM | CC(C)(c1ccc(Cl)cc1)c1nnc(SCc2ccc(F)cc2Cl)n1-c1ccc(F)cc1 [Example 6]
3 | 1000 to 10000 nM | Fc1ccc(-n2c(Cc3ccc(F)c(Cl)c3)nnc2SCc2c(F)cccc2Cl)cc1 [Example 15]
4 | 1000 to 10000 nM | Fc1ccc(CSc2nnc(Cc3ccc(Cl)c(Cl)c3)n2-c2ccc(F)cc2)cc1 [Example 17]
5 | 1000 to 10000 nM | COc1ccc(Cc2nnc(SCc3ccc(F)cc3Cl)n2-c2ccc(F)cc2)cc1 [Example 28, hydrochloride]
6 | < 100 nM | COc1ccc(Cc2nnc(SCc3cccc(C(F)(F)F)c3F)n2-c2ccc(F)cc2)cc1OC [Example 30]
7 | 1000 to 10000 nM | Fc1ccc(-n2c(Cc3ccc(Cl)c(Cl)c3)nnc2SCc2ccc(F)cc2C(F)(F)F)cc1 [Example 33]
8 | 100 to 1000 nM | Fc1ccc(-n2c(Cc3ccc(Cl)c(F)c3)nnc2SCc2c(F)cccc2Cl)cc1 [Example 38]
9 | 1000 to 10000 nM | CS(=O)(=O)c1ccc(Cc2nnc(SCc3ccc(F)cc3Cl)n2-c2ccc(F)cc2)cc1 [Example 44]
10 | 1000 to 10000 nM | CC(C)(c1ccc2nccnc2c1)c1nnc(SCc2ccc(Cl)c(-c3nnn[nH]3)c2)n1-c1ccc(F)cc1 [Example 46]
11 | 1000 to 10000 nM | CC(C)(c1ccc2cccnc2c1)c1nnc(SCc2c(F)cc(C(=O)O)cc2F)n1-c1ccc(F)cc1 [Example 50]

Same assay, conditions: h-TGR5 CRE-Luc EC50, Table 1; read-out: CRE-Luc (EC50)

Row | EC50 | SMILES
12 | 100 to 1000 nM | CC(C)(c1ccc(Cl)c(Cl)c1)c1cnc(COc2ccc3ncccc3c2)n1-c1ccc(F)cc1 [6-[({5-[1-(3,4-dichlorophenyl)-1-methylethyl]-1-(4-fluorophenyl)-1H-imidazol-2-yl}methyl)oxy]quinoline]
13 | 100 to 1000 nM | CC(C)(c1ccc(Cl)c(Cl)c1)c1cnc(SCc2ccc(F)cc2OCC(=O)O)n1-c1ccc(F)cc1 [({2-[({5-[1-(3,4-dichlorophenyl)-1-methylethyl]-1-(4-fluorophenyl)-1H-imidazol-2-yl}thio)methyl]-5-fluorophenyl}oxy)acetic acid]
14 | 1000 to 10000 nM | CC(C)(c1ccc(Cl)c(Cl)c1)c1cnc(S(=O)(=O)Nc2ccc(F)cc2Cl)n1-c1ccc(F)cc1 [N-(2-chloro-4-fluorophenyl)-5-[1-(3,4-dichlorophenyl)-1-methylethyl]-1-(4-fluorophenyl)-1H-imidazole-2-sulfonamide]
15 | 100 to 1000 nM | CC(C)(c1ccc(NS(C)(=O)=O)cc1)c1cnc(SCc2c(F)cccc2Cl)n1-c1ccc(F)cc1 [N-(4-{1-[2-{[(2-chloro-6-fluorophenyl)methyl]thio}-1-(4-fluorophenyl)-1H-imidazol-5-yl]-1-methylethyl}phenyl)methanesulfonamide]
16 | 100 to 1000 nM | COc1cc(C(C)(C)c2cnc(SCc3ccc(S(=O)(=O)NC(=O)NCCC(=O)O)cc3Cl)n2-c2ccc(F)cc2)ccc1Cl [N-[({[3-chloro-4-({[5-{1-[4-chloro-3-(methyloxy)phenyl]-1-methylethyl}-1-(4-fluorophenyl)-1H-imidazol-2-yl]thio}methyl)phenyl]sulfonyl}amino)carbonyl]-beta-alanine]
17 | < 100 nM | COc1ccc(C(C)(C)c2cnc(CNc3ccc(F)cc3Cl)n2-c2ccc(F)cc2)cc1OC [N-{[5-{1-[3,4-bis(methyloxy)phenyl]-1-methylethyl}-1-(4-fluorophenyl)-1H-imidazol-2-yl]methyl}-2-chloro-4-fluoroaniline]
18 | < 100 nM | COc1ccc(C(C)(C)c2cnc(CNc3ccc(Cl)c(Cl)c3)n2-c2ccc(F)cc2)cc1OC [N-{[5-{1-[3,4-bis(methyloxy)phenyl]-1-methylethyl}-1-(4-fluorophenyl)-1H-imidazol-2-yl]methyl}-3,4-dichloroaniline]
19 | 100 to 1000 nM | COc1ccc(C(C)(C)c2cnc(CNc3ccc(F)c(Cl)c3)n2-c2ccc(F)cc2)cc1OC [N-{[5-{1-[3,4-bis(methyloxy)phenyl]-1-methylethyl}-1-(4-fluorophenyl)-1H-imidazol-2-yl]methyl}-3-chloro-4-fluoroaniline]
20 | 1000 to 10000 nM | COc1cc(C(C)(C)c2cnc(SCC3CCN(CC(=O)O)CC3)n2-c2ccc(F)cc2)ccc1Cl [[4-({[5-{1-[4-chloro-3-(methyloxy)phenyl]-1-methylethyl}-1-(4-fluorophenyl)-1H-imidazol-2-yl]thio}methyl)piperidin-1-yl]acetic acid]
21 | 1000 to 10000 nM | CC(C)(c1ccc(OCC(=O)O)c(Cl)c1)c1cnc(SCc2ccc(F)cc2Cl)n1-c1ccc(F)cc1 [[(2-chloro-4-{1-[2-{[(2-chloro-4-fluorophenyl)methyl]thio}-1-(4-fluorophenyl)-1H-imidazol-5-yl]-1-methylethyl}phenyl)oxy]acetic acid]

The next lines start with the molecule.

Row | SMILES | EC50
22 | COc1ccc(C(C)(C)c2cnc(C(=O)Nc3ccc(F)cc3Cl)n2-c2ccc(F)cc2)cc1OC [5-{1-[3,4-bis(methyloxy)phenyl]-1-methylethyl}-N-(2-chloro-4-fluorophenyl)-1-(4-fluorophenyl)-1H-imidazole-2-carboxamide] | 1000 to 10000 nM
23 | COc1ccc(C(C)(C)c2cnc(C(=O)Nc3c(F)cccc3Cl)n2-c2ccc(F)cc2)cc1OC [5-{1-[3,4-bis(methyloxy)phenyl]-1-methylethyl}-N-(2-chloro-6-fluorophenyl)-1-(4-fluorophenyl)-1H-imidazole-2-carboxamide] | 1000 to 10000 nM
24 | COc1ccc(C(C)(C)c2cnc(C(=O)N(C)c3c(F)cccc3Cl)n2-c2ccc(F)cc2)cc1OC [5-{1-[3,4-bis(methyloxy)phenyl]-1-methylethyl}-N-(2-chloro-6-fluorophenyl)-1-(4-fluorophenyl)-N-methyl-1H-imidazole-2-carboxamide] | 1000 to 10000 nM
25 | COc1ccc(C(C)(C)c2cnc(C(=O)Nc3ccc(Cl)c(Cl)c3)n2-c2ccc(F)cc2)cc1OC [5-{1-[3,4-bis(methyloxy)phenyl]-1-methylethyl}-N-(3,4-dichlorophenyl)-1-(4-fluorophenyl)-1H-imidazole-2-carboxamide] | 1000 to 10000 nM
26 | COc1ccc(C(C)(C)c2cnc(C(=O)Nc3ccc(F)c(Cl)c3)n2-c2ccc(F)cc2)cc1OC [5-{1-[3,4-bis(methyloxy)phenyl]-1-methylethyl}-N-(3-chloro-4-fluorophenyl)-1-(4-fluorophenyl)-1H-imidazole-2-carboxamide] | 1000 to 10000 nM
27 | COc1ccc(C(C)(C)c2cnc(C(=O)NCc3ccc(Cl)c(F)c3)n2-c2ccc(F)cc2)cc1OC [5-{1-[3,4-bis(methyloxy)phenyl]-1-methylethyl}-N-[(4-chloro-3-fluorophenyl)methyl]-1-(4-fluorophenyl)-1H-imidazole-2-carboxamide] | 100 to 1000 nM
28 | COc1ccc(C(C)(C)c2cnc(C(=O)NC3CCCCC3)n2-c2ccc(F)cc2)cc1OC [5-{1-[3,4-bis(methyloxy)phenyl]-1-methylethyl}-N-cyclohexyl-1-(4-fluorophenyl)-1H-imidazole-2-carboxamide] | 1000 to 10000 nM
29 | CC(C)(c1ccc(Cl)c(Cl)c1)c1cnc(SCc2ccc(-c3nnn[nH]3)c(Cl)c2)n1-c1ccc(F)cc1 [5-{2-chloro-4-[({5-[1-(3,4-dichlorophenyl)-1-methylethyl]-1-(4-fluorophenyl)-1H-imidazol-2-yl}thio)methyl]phenyl}-1H-tetrazole] | 100 to 1000 nM
30 | CC(C)(c1ccc(Cl)c(Cl)c1)c1cnc(SCc2ccc(Cl)c(-c3nnn[nH]3)c2)n1-c1cccc(F)c1 [5-{2-chloro-5-[({5-[1-(3,4-dichlorophenyl)-1-methylethyl]-1-(3-fluorophenyl)-1H-imidazol-2-yl}thio)methyl]phenyl}-1H-tetrazole] | 100 to 1000 nM
31 | CC(C)(c1ccc(Cl)c(Cl)c1)c1cnc(COc2ccc(-c3nn[nH]n3)cc2Cl)n1-c1ccc(F)cc1 [5-{3-chloro-4-[({5-[1-(3,4-dichlorophenyl)-1-methylethyl]-1-(4-fluorophenyl)-1H-imidazol-2-yl}methyl)oxy]phenyl}-2H-tetrazole] | 1000 to 10000 nM
32 | CC(C)(c1ccc(Cl)c(Cl)c1)c1cnc(SCc2ccc(-c3nnn[nH]3)c(F)c2)n1-c1ccc(F)cc1 [5-{4-[({5-[1-(3,4-dichlorophenyl)-1-methylethyl]-1-(4-fluorophenyl)-1H-imidazol-2-yl}thio)methyl]-2-fluorophenyl}-1H-tetrazole] | 100 to 1000 nM
33 | CC(C)(c1ccc(Cl)c(Cl)c1)c1cnc(SCc2ccc(F)c(-c3nnn[nH]3)c2)n1-c1ccc(F)cc1 [5-{5-[({5-[1-(3,4-dichlorophenyl)-1-methylethyl]-1-(4-fluorophenyl)-1H-imidazol-2-yl}thio)methyl]-2-fluorophenyl}-1H-tetrazole] | 100 to 1000 nM
34 | CC(C)(c1ccc(Cl)c(Cl)c1)c1cnc(COc2ccc(C#N)cn2)n1-c1ccc(F)cc1 [6-[({5-[1-(3,4-dichlorophenyl)-1-methylethyl]-1-(4-fluorophenyl)-1H-imidazol-2-yl}methyl)oxy]pyridine-3-carbonitrile] | 100 to 1000 nM
35 | CC(C)(c1ccc(Cl)c(Cl)c1)c1cnc(COc2ccc(C(N)=O)cn2)n1-c1ccc(F)cc1 [6-[({5-[1-(3,4-dichlorophenyl)-1-methylethyl]-1-(4-fluorophenyl)-1H-imidazol-2-yl}methyl)oxy]pyridine-3-carboxamide] | 100 to 1000 nM
36 | CC(C)(c1ccc(Cl)c(Cl)c1)c1cnc(COc2ccc(C(=O)O)cn2)n1-c1ccc(F)cc1 [6-[({5-[1-(3,4-dichlorophenyl)-1-methylethyl]-1-(4-fluorophenyl)-1H-imidazol-2-yl}methyl)oxy]pyridine-3-carboxylic acid] | 100 to 1000 nM
